Read-outs that look alike come from different tables or passages of the source.
How the values were obtained:
Assay in all cases: in vitro cytotoxicity anti tumor activity
Format in all cases: cell-based
[1] = tested on: DLD-1 Colon cancer cells; settings: Homo sapiens, DLD-1, 1 h; One Hour Pulse Treatment; read-out: IC50
[2] = tested on: Lung (NCI-H23) cancer cells; settings: Homo sapiens, read-out: IC50
[3] = tested on: Lung (LX-1) cancer cells; settings: 1 h; One Hour Pulse Treatment; read-out: IC50
[4] = tested on: LOX-IMVI Melanoma cells; settings: Homo sapiens, read-out: IC50

C[C@H](Cc1ccc(O)c(O)c1)[C@@H](C)Cc1ccc(O)c(O)c1 [Masoprocol, meso-1,4-bis (3,4-dihydroxyphenyl)-2,3-dimethylbutane]
IC50 [1]: 124 µM
IC50 ([2]; NCI-H23, 1 h, One Hour Pulse Treatment): 172 µM
IC50 ([2]; NCI-H23, Continuous Drug Exposure, observation at 70 hours): 0.08 µM
IC50 [3]: 18 µM
IC50 ([4]; 1 h, One Hour Pulse Treatment): 38.4 µM
IC50 ([4]; Continuous Drug Exposure, observation at 70 hours): 0.08 µM
